Consider one molecule from patent US20100152249A1, “COMPOSITONS AND METHOD FOR TREATMENT OF MOOD AND COGNITIVE IMPAIRMENTS” (BOARD OF TRUSTEES OF THE LELAND STANFORD JUNIOR UNIVERSITY, priority 2008, published 2010).

The assay relates to patients with depressive disorder. Description: Open-label rosiglitazone added to treatment as usual for 12 weeks in patients with depressive disorder and surrogate IR blood markers. Type of assay: in vivo, human. The method, then:
Open-label PPAR agonist, rosiglitazone, titrated to a dose of 8 mg/day, was administered for 12 weeks to patients with depressive disorder receiving treatment as usual (TAU). Subjects were evaluated and surrogate IR blood markers were chosen based on fasting plasma glucose >100 mg/dL or triglyceride (TG) to high density lipoprotein (HDL) ratio of about 3.0 or greater.
Psychiatric Response to Treatment. […] Cohen's d for pre- to post-treatment HDRS-21 was 1.17, with an effect size of r=0.504. For CGI-S scores, Cohen's d and effect size r for CGI-S were 1.27 and 0.54, respectively. […] Even considering the very small sample size, the trajectory of decline in HDRS and CGI was linear.

Where [1] appears, read: 8 mg/day, 12 weeks, 8 completers.

Structures are written as SMILES.

`CN(CCOc1ccc(CC2SC(=O)NC2=O)cc1)c1ccccn1` (stereo not drawn) [rosiglitazone, 5-[4-[2-(N-methyl-N-(2-pyridyl)amino)ethoxy]benzyl]thiazolidine-2,4-dione] registered a CGI-S post-treatment mean (8 mg/day, 12 weeks, add-on to TAU, 8 completers, baseline mean 4.0, p=0.043) of 2.9. For the same molecule, the HDRS-21 post-treatment mean (8 mg/day, 12 weeks, add-on to TAU, 8 completers, baseline mean 19.9, repeated measures ANOVA p=0.019) stood at 12.1. Under setting [1], the “Cohen's d for CGI-S” value is on record as 1.27, the “Cohen's d for pre- to post-treatment HDRS-21” value was 1.17, the “effect size r for CGI-S” value is listed as 0.54 and the “effect size r for pre- to post-treatment HDRS-21” value was 0.504. Besides, the “patients showing ≧50% HDRS-21 score reduction” value under setting [1] is 4 of the 8. Besides, the “mean reduction in HDRS-21 scores” value (8 mg/day, 12 weeks, 8 completers, versus baseline) is 39.3%. The “depression severity by Hamilton Depression Rating Scale and clinical assessment (CGI) scores” value (8 patients who completed the 12 week study, moderate effect sizes) is listed as “significant declines”.
